Measured values reported in patent US11279733B2, “Peptide antibiotics” (priority 2017, dated 2022).
Converted amounts (≈) assume the structure as drawn. Positions of bridges follow the written chain, without caps; N, C: chain ends. Non-standard residues stand in square brackets, D forms with d. Residues, ends and D or L forms follow the SMILES beside them. *: point of attachment. dPhe(4-NO2) = N[C@H](Cc1ccc([N+](=O)[O-])cc1)C(=O)O; Decanoyl(3R-OH) = CCCCCCC[C@@H](O)CC(=O)*; dPhe(4-NH2) = Nc1ccc(C[C@@H](N)C(=O)O)cc1; d3Pal = N[C@H](Cc1cccnc1)C(=O)O; Dab = NCC[C@H](N)C(=O)O

Legend:
[1] = tested on: K. pneumoniae ATCC BAA-2146, NDM-1 pos; conditions: ATCC BAA-2146
Method: (§1) Bacteria were either obtained from American Type Culture Collection (ATCC; Manassas, Va., USA) or independent academic clinical isolate collections, as listed in Table 18 below. Bacteria were cultured in Nutrient broth (NB; Bacto Laboratories, catalogue No. 234000) or Mueller Hinton broth (MHB; Bacto Laboratories, catalogue No. 211443) at 37° C. overnight with shaking (˜180 RPM). A sample of each culture was then diluted 50-fold in fresh MHB and incubated at 37° C. for 2-3 h with shaking (˜180 RPM). Compound stock solutions were prepared as 0.64 mg/mL or 2.56 mg/mL in water. The compounds, at twice the final desired concentration, were serially diluted 2-fold across the wells of 96-well plates (Polystyrene, Corning, catalogue No. 3370). Mid-log phase bacterial cultures (after 2-3 h incubation) were diluted to a final concentration of 1×10^6 colony forming units (CFU)/mL, and 50 μL was added to each well giving a final cell density of 5×10^5 and a compound concentration range of 32 μg/mL to 0.015 μg/mL (128-0.06 μg/mL against P. aeruginosa PA9704).

[2] = tested on: K. pneumoniae GN_102 PmxR; conditions: GN 102 PmxR
Method: as §1

P. aeruginosa ATCC 27853 = conditions: ATCC 27853
Method: as §1

E. coli ATCC 25922 = conditions: ATCC 25922
Method: as §1

[3] = tested on: P. aeruginosa GN_043, PmxR; conditions: Table 6; polymyxin-resistant
Method: as §1

[4] = tested on: K. pneumoniae ATCC 700603, MDR; conditions: ATCC 700603
Method: as §1

[5] = tested on: P. aeruginosa GN_105, PmxR; conditions: GN 105, PmxR
Method: as §1

[6] = tested on: K. pneumoniae GN_106, PmxR; conditions: GN 106, PmxR
Method: as §1

K. pneumoniae ATCC 13883 = conditions: ATCC 13883
Method: as §1

A. baumannii ATCC 19606 = conditions: ATCC 19606
Method: as §1

[7] = tested on: S. aureus ATCC 25923, MSSA; conditions: ATCC 25923
Method: as §1

A. baumannii GN_093 PmxR = conditions: GN 093 PmxR
Method: as §1

SMILES	MIC, K. pneumoniae ATCC BAA-2146, NDM-1 pos [1]	MIC K. pneumoniae GN_102 PmxR [2]	MIC, P. aeruginosa ATCC 27853 (P. aeruginosa ATCC 27853)	MIC, E. coli ATCC 25922 (E. coli ATCC 25922)	MIC P. aeruginosa GN_043, PmxR [3]	MIC, K. pneumoniae ATCC 700603, MDR [4]	MIC P. aeruginosa GN_105, PmxR [5]	MIC K. pneumoniae GN_106, PmxR [6]	MIC, K. pneumoniae ATCC 13883 (K. pneumoniae ATCC 13883)	MIC, A. baumannii ATCC 19606 (A. baumannii ATCC 19606)	MIC, S. aureus ATCC 25923, MSSA [7]	MIC A. baumannii GN_093 PmxR (A. baumannii GN_093 PmxR)
CCCCCCC[C@@H](O)CC(=O)N[C@H](Cc1c[nH]c2ccccc12)C(=O)N[C@H]1CCNC(=O)[C@H](CC(C)C)NC(=O)[C@H](CCN)NC(=O)[C@H](CCN)NC(=O)[C@H](CC(C)C)NC(=O)[C@@H](Cc2ccccc2)NC(=O)[C@H](CCN)NC1=O [compound 6441, 3(R)OH-nC9CO-D-Trp-cyc[L-Dab-L-Dab-D-Phe-L-Leu-L-Dab-L-Dab-L-Leu]] ({Decanoyl(3R-OH)}-[dW][Dab][Dab][dF]L[Dab][Dab]L; lactam 2-C)	8 µg/mL (≈ 7.08 µM)	8 µg/mL (≈ 7.08 µM)	16 µg/mL (≈ 14.2 µM)	16 µg/mL (≈ 14.2 µM)	8 µg/mL (≈ 7.08 µM)	8 µg/mL (≈ 7.08 µM)	16 µg/mL (≈ 14.2 µM)	4 µg/mL (≈ 3.54 µM)	16 µg/mL (≈ 14.2 µM)	16 µg/mL (≈ 14.2 µM)	8 µg/mL (≈ 7.08 µM)	32 µg/mL (≈ 28.3 µM)
CCCCCCC[C@@H](O)CC(=O)N[C@H](Cc1ccc(N)cc1)C(=O)N[C@H]1CCNC(=O)[C@H](CC(C)C)NC(=O)[C@H](CCN)NC(=O)[C@H](CCN)NC(=O)[C@H](CC(C)C)NC(=O)[C@@H](Cc2ccccc2)NC(=O)[C@H](CCN)NC1=O [compound 6444, 3(R)OH-nC9CO-D-4NH2Phe-cyc[L-Dab-L-Dab-D-Phe-L-Leu-L-Dab-L-Dab-L-Leu]] ({Decanoyl(3R-OH)}-[dPhe(4-NH2)][Dab][Dab][dF]L[Dab][Dab]L; lactam 2-C)	8 µg/mL (≈ 7.23 µM)	8 µg/mL (≈ 7.23 µM)	16 µg/mL (≈ 14.5 µM)	8 µg/mL (≈ 7.23 µM)	32 µg/mL (≈ 28.9 µM)	8 µg/mL (≈ 7.23 µM)	16 µg/mL (≈ 14.5 µM)	8 µg/mL (≈ 7.23 µM)	8 µg/mL (≈ 7.23 µM)	32 µg/mL (≈ 28.9 µM)	>32 µg/mL	32 µg/mL (≈ 28.9 µM)
CCCCCCC[C@@H](O)CC(=O)N[C@H](Cc1cccnc1)C(=O)N[C@H]1CCNC(=O)[C@H](CC(C)C)NC(=O)[C@H](CCN)NC(=O)[C@H](CCN)NC(=O)[C@H](CC(C)C)NC(=O)[C@@H](Cc2ccccc2)NC(=O)[C@H](CCN)NC1=O [compound 6445, 3(R)OH-nC9CO-D-3PyPhe-cyc[L-Dab-L-Dab-D-Phe-L-Leu-L-Dab-L-Dab-L-Leu]] ({Decanoyl(3R-OH)}-[d3Pal][Dab][Dab][dF]L[Dab][Dab]L; lactam 2-C)	8 µg/mL (≈ 7.32 µM)	8 µg/mL (≈ 7.32 µM)	16 µg/mL (≈ 14.6 µM)	8 µg/mL (≈ 7.32 µM)	8 µg/mL (≈ 7.32 µM)	8 µg/mL (≈ 7.32 µM)	8 µg/mL (≈ 7.32 µM)	4 µg/mL (≈ 3.66 µM)	4 µg/mL (≈ 3.66 µM)	32 µg/mL (≈ 29.3 µM)	>32 µg/mL	>32 µg/mL
CCCCCCC[C@@H](O)CC(=O)NCC(=O)N[C@H]1CCNC(=O)[C@H](CC(C)C)NC(=O)[C@H](CCN)NC(=O)[C@H](CCN)NC(=O)[C@H](CC(C)C)NC(=O)[C@@H](Cc2ccccc2)NC(=O)[C@H](CCN)NC1=O [compound 6446, 3(R)OH-nC9CO-Gly-cyc[L-Dab-L-Dab-D-Phe-L-Leu-L-Dab-L-Dab-L-Leu]] ({Decanoyl(3R-OH)}-G[Dab][Dab][dF]L[Dab][Dab]L; lactam 2-C)	8 µg/mL (≈ 7.99 µM)	4 µg/mL (≈ 3.99 µM)	4 µg/mL (≈ 3.99 µM)	8 µg/mL (≈ 7.99 µM)	4 µg/mL (≈ 3.99 µM)	8 µg/mL (≈ 7.99 µM)	4 µg/mL (≈ 3.99 µM)	8 µg/mL (≈ 7.99 µM)	8 µg/mL (≈ 7.99 µM)	32 µg/mL (≈ 32 µM)	>32 µg/mL	32 µg/mL (≈ 32 µM)
CCCCCCC[C@@H](O)CC(=O)N[C@H](CC(N)=O)C(=O)N[C@H]1CCNC(=O)[C@H](CC(C)C)NC(=O)[C@H](CCN)NC(=O)[C@H](CCN)NC(=O)[C@H](CC(C)C)NC(=O)[C@@H](Cc2ccccc2)NC(=O)[C@H](CCN)NC1=O [compound 6447, 3(R)OH-nC9CO-D-Asn-cyc[L-Dab-L-Dab-D-Phe-L-Leu-L-Dab-L-Dab-L-Leu]] ({Decanoyl(3R-OH)}-[dN][Dab][Dab][dF]L[Dab][Dab]L; lactam 2-C)	8 µg/mL (≈ 7.56 µM)	4 µg/mL (≈ 3.78 µM)	8 µg/mL (≈ 7.56 µM)	4 µg/mL (≈ 3.78 µM)	8 µg/mL (≈ 7.56 µM)	8 µg/mL (≈ 7.56 µM)	4 µg/mL (≈ 3.78 µM)	4 µg/mL (≈ 3.78 µM)	4 µg/mL (≈ 3.78 µM)	16 µg/mL (≈ 15.1 µM)	32 µg/mL (≈ 30.2 µM)	8 µg/mL (≈ 7.56 µM)
CCCCCCC[C@@H](O)CC(=O)N[C@H](Cc1ccc([N+](=O)[O-])cc1)C(=O)N[C@H]1CCNC(=O)[C@H](CC(C)C)NC(=O)[C@H](CCN)NC(=O)[C@H](CCN)NC(=O)[C@H](CC(C)C)NC(=O)[C@@H](Cc2ccccc2)NC(=O)[C@H](CCN)NC1=O [compound 6448, 3(R)OH-nC9CO-D-4NO2Phe-cyc[L-Dab-L-Dab-D-Phe-L-Leu-L-Dab-L-Dab-L-Leu]] ({Decanoyl(3R-OH)}-[dPhe(4-NO2)][Dab][Dab][dF]L[Dab][Dab]L; lactam 2-C)	8 µg/mL (≈ 7.04 µM)	8 µg/mL (≈ 7.04 µM)	8 µg/mL (≈ 7.04 µM)	4 µg/mL (≈ 3.52 µM)	8 µg/mL (≈ 7.04 µM)	8 µg/mL (≈ 7.04 µM)	8 µg/mL (≈ 7.04 µM)	4 µg/mL (≈ 3.52 µM)	4 µg/mL (≈ 3.52 µM)	8 µg/mL (≈ 7.04 µM)	16 µg/mL (≈ 14.1 µM)	8 µg/mL (≈ 7.04 µM)
